Laboratory results reported in the CheMixHub ionic liquid set.
± gives the uncertainty stated by the source.

Test: xn = mol fraction of the nth substance listed

CCCCCCCCn1cc[n+](C)c1.O=[N+]([O-])[O-] + CCCO
101 kPa
Conditions	viscosity [mPa·s]
288.15 K, x2 = 0.258	356 ± 94
288.15 K, x2 = 0.556	52 ± 1.3
293.15 K, x2 = 0.47	75.4 ± 4.4
293.15 K, x2 = 0.556	42.1 ± 1.6
293.15 K, x2 = 0.671	19.89 ± 0.88
298.15 K, x2 = 0.866	5.08 ± 0.53
303.15 K, x2 = 0.258	147 ± 21
303.15 K, x2 = 0.364	78.7 ± 5.1
308.15 K, x2 = 0.556	24.01 ± 0.99
313.15 K, x2 = 0.47	32.9 ± 1.3
313.15 K, x2 = 0.671	10.83 ± 0.64
318.15 K, x2 = 0.258	65.9 ± 2.8
318.15 K, x2 = 0.671	9.5 ± 0.61
328.15 K, x2 = 0.556	11.56 ± 0.65

CCOP(=O)([O-])OCC.CC[n+]1ccn(C)c1 + CCCO + O
100 kPa
Conditions	viscosity [mPa·s]
293.15 K, x2 = 0.347, x3 = 0.3491	90 ± 12
303.15 K, x2 = 0.294, x3 = 0.304	78 ± 10
313.15 K, x2 = 0.15, x3 = 0.1487	93 ± 12
313.15 K, x2 = 0.199, x3 = 0.1954	76 ± 10
323.15 K, x2 = 0.048, x3 = 0.0487	80 ± 11

CCCCCCCCn1cc[n+](C)c1.F[B-](F)(F)F + CCCOC(C)=O
298.15 K, 101 kPa
Conditions	viscosity [mPa·s]
x2 = 0.3984	44.84 ± 0.5
x2 = 0.4496	33.85 ± 0.37
x2 = 0.5551	18.72 ± 0.2

CCCCCCCCCCCCCC[P+](CCCCCC)(CCCCCC)CCCCCC.O=S(=O)([N-]S(=O)(=O)C(F)(F)F)C(F)(F)F + CCC[N+]1(C)CCCC1.O=S(=O)([N-]S(=O)(=O)C(F)(F)F)C(F)(F)F
Conditions	electrical conductivity [S/m]
293.15 K, 101 kPa, x1 = 1	0.00719 ± 0.00073

O=C1CCCO1 + CCC[N+]1(C)CCCC1.O=S(=O)([N-]S(=O)(=O)C(F)(F)F)C(F)(F)F
101 kPa, x2 = 0
Conditions	viscosity [mPa·s]
288.15 K	2.146 ± 0.087
318.15 K	1.398 ± 0.057
348.15 K	0.99 ± 0.04

CCCCCCCCn1cc[n+](C)c1.F[B-](F)(F)F + CCO
Conditions	viscosity [mPa·s]
283.15 K, 101 kPa, x2 = 0.081	720 ± 130

CCCCCCCCn1cc[n+](C)c1.O=[N+]([O-])[O-] + CCO
101 kPa
Conditions	viscosity [mPa·s]
283.15 K, x2 = 0.554	48.2 ± 2
288.15 K, x2 = 0.357	162 ± 26
288.15 K, x2 = 0.868	4.46 ± 0.53
293.15 K, x2 = 0.455	59.7 ± 1.9
293.15 K, x2 = 0.767	8.59 ± 0.59
298.15 K, x2 = 0.767	7.54 ± 0.57
303.15 K, x2 = 0.554	21.79 ± 0.93
303.15 K, x2 = 0.767	6.47 ± 0.55
313.15 K, x2 = 0.767	4.99 ± 0.53
318.15 K, x2 = 0.128	112 ± 12
318.15 K, x2 = 0.357	39.8 ± 1.5
318.15 K, x2 = 0.455	21.77 ± 0.91
328.15 K, x2 = 0.128	53.6 ± 1.6
328.15 K, x2 = 0.357	23.9 ± 1
328.15 K, x2 = 0.554	9.29 ± 0.6

CCCC[n+]1ccn(C)c1.COP(=O)([O-])OC + CCO
viscosity [mPa·s], 101 kPa
Conditions	293.15 K	298.15 K	308.15 K	313.15 K	318.15 K	323.15 K	328.15 K	333.15 K
x2 = 0.201	–	–	155.7 ± 6.5	–	–	–	–	–
x2 = 0.399	150.9 ± 6.7	114.4 ± 3.6	–	55.65 ± 0.58	45.2 ± 0.56	37.08 ± 0.44	30.89 ± 0.36	25.94 ± 0.26
x2 = 0.8	–	–	5.933 ± 0.068	5.272 ± 0.061	–	4.227 ± 0.049	3.811 ± 0.045	–

CCCC[n+]1ccn(C)c1.[Cl-] + CCO
101 kPa
Conditions	electrical conductivity [S/m]	viscosity [mPa·s]
293.15 K, x2 = 0.9501	–	1.78 ± 0.39
298.15 K, x2 = 0.7003	1.07 ± 0.02	10.1 ± 1.6
298.15 K, x2 = 0.8002	1.45 ± 0.03	4.59 ± 0.81
303.15 K, x2 = 0.4991	–	49.8 ± 7.6
303.15 K, x2 = 0.6011	–	20.7 ± 3.2
303.15 K, x2 = 0.9501	–	1.47 ± 0.34

CCOP(=O)([O-])OCC.CC[N+]1(C)CCOCC1 + CCO
viscosity [mPa·s], 100 kPa
Conditions	293.15 K	298.15 K	303.15 K	308.15 K	313.15 K	318.15 K	323.15 K	328.15 K	333.15 K	338.15 K
x1 = 0.0996	4.62 ± 0.28	4.1 ± 0.25	3.75 ± 0.23	3.43 ± 0.21	3.13 ± 0.19	2.91 ± 0.18	2.76 ± 0.17	2.58 ± 0.16	2.4 ± 0.15	2.24 ± 0.14
x1 = 0.2018	12.84 ± 0.78	11.11 ± 0.67	9.79 ± 0.59	8.75 ± 0.53	7.93 ± 0.48	7.21 ± 0.44	6.69 ± 0.4	6.18 ± 0.37	5.76 ± 0.35	5.54 ± 0.34
x1 = 0.3003	36.7 ± 2.2	29.6 ± 1.8	24.7 ± 1.5	20.8 ± 1.3	18.1 ± 1.1	15.82 ± 0.96	14.33 ± 0.87	13.01 ± 0.79	11.79 ± 0.72	10.78 ± 0.65
x1 = 0.4018	97.7 ± 6.1	75.1 ± 4.6	59 ± 3.6	47.6 ± 2.9	38.2 ± 2.3	31.8 ± 1.9	27.3 ± 1.7	23.5 ± 1.4	21.1 ± 1.3	18.7 ± 1.1
x1 = 0.4998	257 ± 18	183 ± 12	136.7 ± 8.8	102.9 ± 6.5	78.9 ± 4.9	61.3 ± 3.8	49.2 ± 3	40.1 ± 2.5	33.3 ± 2.1	29 ± 1.8
x1 = 0.6009	625 ± 49	419 ± 31	291 ± 20	209 ± 14	155 ± 10	116.8 ± 7.5	90 ± 5.7	68.9 ± 4.3	54.9 ± 3.4	44.7 ± 2.8
x1 = 0.7005	1447 ± 130	938 ± 78	631 ± 49	424 ± 31	298 ± 21	213 ± 15	158 ± 11	120.4 ± 7.8	91.7 ± 5.8	72 ± 4.5
x1 = 0.7996	3386 ± 340	2221 ± 210	1448 ± 130	895 ± 74	582 ± 45	409 ± 30	282 ± 20	205 ± 14	155 ± 10	114.1 ± 7.4
x1 = 0.901	6136 ± 670	3670 ± 370	2214 ± 210	1372 ± 120	909 ± 76	604 ± 48	418 ± 32	297 ± 21	215 ± 15	160 ± 11
x1 = 1	12100 ± 1500	6680 ± 740	3786 ± 390	2325 ± 220	1466 ± 130	942 ± 80	634 ± 51	443 ± 34	312 ± 23	226 ± 16

CCOP(=O)([O-])OCC.CC[n+]1ccn(C)c1 + CCO
100 kPa
Conditions	viscosity [mPa·s]
293.15 K, x1 = 0.7003	178 ± 12
293.15 K, x1 = 0.8985	379 ± 27
293.15 K, x1 = 1	566 ± 43
298.15 K, x1 = 0.4007	29.8 ± 1.8
298.15 K, x1 = 0.7003	133.2 ± 8.5
303.15 K, x1 = 0.4007	24.8 ± 1.5
303.15 K, x1 = 0.8	139.2 ± 8.9
303.15 K, x1 = 0.8985	197 ± 13
308.15 K, x1 = 0.7003	79.6 ± 4.9
313.15 K, x1 = 1	155 ± 10
318.15 K, x1 = 0.8985	86.8 ± 5.4
323.15 K, x1 = 0.7003	41.1 ± 2.5
328.15 K, x1 = 0.1002	2.16 ± 0.13
328.15 K, x1 = 0.1992	4.29 ± 0.26
328.15 K, x1 = 0.5993	24.4 ± 1.5
333.15 K, x1 = 0.4007	10.87 ± 0.66
338.15 K, x1 = 0.7003	23.7 ± 1.4

CCCC[N+]1(C)CCCC1.O=S(=O)([N-]S(=O)(=O)C(F)(F)F)C(F)(F)F + CCOC(=O)OCC
100 kPa
Conditions	electrical conductivity [S/m]	viscosity [mPa·s]
293.15 K, x1 = 0.1001	0.343 ± 0.011	1.84 ± 0.06
293.15 K, x1 = 0.2	0.526 ± 0.016	3.84 ± 0.12
293.15 K, x1 = 0.4998	0.42 ± 0.013	18.14 ± 0.56
293.15 K, x1 = 0.8934	0.23 ± 0.007	72.5 ± 2.2
303.15 K, x1 = 0.2	0.648 ± 0.02	3.18 ± 0.1
303.15 K, x1 = 0.25	0.731 ± 0.022	–
308.15 K, x1 = 0.4998	0.705 ± 0.021	11.73 ± 0.36
308.15 K, x1 = 0.8934	0.454 ± 0.014	38.8 ± 1.2
313.15 K, x1 = 0.1001	0.465 ± 0.015	1.22 ± 0.04
313.15 K, x1 = 0.25	0.9 ± 0.027	–
323.15 K, x1 = 0.1001	0.539 ± 0.017	1 ± 0.03
323.15 K, x1 = 0.8006	0.793 ± 0.024	18.67 ± 0.57

CCCCCCCCn1cc[n+](C)c1.F[B-](F)(F)F + CCOC(C)=O
298.15 K, 101 kPa
Conditions	viscosity [mPa·s]
x2 = 0.204	115.5 ± 4.4
x2 = 0.3986	41.35 ± 0.54
x2 = 0.4461	31.64 ± 0.41
x2 = 0.5984	12.72 ± 0.17
x2 = 0.624	10.93 ± 0.14
x2 = 0.8017	3.1 ± 0.05
x2 = 0.953	0.74 ± 0.01

CCCC[n+]1ccn(C)c1.O=S(=O)([O-])C(F)(F)F + CCOC(C)=O
100 kPa
Conditions	viscosity [mPa·s]
298.15 K, x1 = 0.6095	28.3 ± 5.7
298.15 K, x1 = 0.8932	55 ± 11
303.15 K, x1 = 0.3978	13.4 ± 2.7
303.15 K, x1 = 1	67 ± 13
313.15 K, x1 = 0.0991	0.84 ± 0.17
313.15 K, x1 = 1	43.7 ± 8.8
318.15 K, x1 = 0.1916	2.57 ± 0.52
318.15 K, x1 = 1	36.3 ± 7.3
323.15 K, x1 = 0.7987	18.2 ± 3.7
323.15 K, x1 = 0.8932	22.4 ± 4.5

CC[N+](C)(CC)CCOC.O=S(=O)([N-]S(=O)(=O)C(F)(F)F)C(F)(F)F + CC[N+](C)(CC)CCOC.F[B-](F)(F)F
Conditions	electrical conductivity [S/m]
298.15 K, 100 kPa, x1 = 1	0.311 ± 0.019
